{
  "source": "paper PMC8521518",
  "about": "“Nicotinamide Adenine Dinucleotide-Dependent Flavin Oxidoreductase of Mycoplasma hyopneumoniae Functions as a Potential Novel Virulence Factor and Not Only as a Metabolic Enzyme” (Frontiers in Microbiology, 2021)",
  "target": "T1, rNFOR (Mhp NFOR, NADH-dependent flavin oxidoreductase) (Mesomycoplasma hyopneumoniae, UniProt E4QSY0)",
  "T1 construct": "gene baiH; 44 kDa on gel",
  "T1 sequence (E4QSY0 entry or part of it)": "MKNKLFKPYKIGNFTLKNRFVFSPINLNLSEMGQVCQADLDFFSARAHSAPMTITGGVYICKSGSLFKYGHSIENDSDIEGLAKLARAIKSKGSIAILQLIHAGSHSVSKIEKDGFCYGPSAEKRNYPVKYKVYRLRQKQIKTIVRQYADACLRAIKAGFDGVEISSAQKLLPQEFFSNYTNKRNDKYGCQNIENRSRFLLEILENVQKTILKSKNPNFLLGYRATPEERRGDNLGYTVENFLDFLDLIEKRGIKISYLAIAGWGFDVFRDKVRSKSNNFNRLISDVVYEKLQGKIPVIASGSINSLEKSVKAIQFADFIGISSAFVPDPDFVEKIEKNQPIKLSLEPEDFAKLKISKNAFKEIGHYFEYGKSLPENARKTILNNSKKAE",
  "assay": "NADH oxidation",
  "type": "biochemical",
  "details": "0.5 mM NADH, 10 uM FMN (5 min preincubation), 0.1 M potassium phosphate pH 7.5, 1 mM DTT, 25 C",
  "data": [
    {"compound": "NC(=O)C1=CN([C@@H]2O[C@H](COP(=O)(O)OP(=O)(O)OC[C@H]3O[C@@H](n4cnc5c(N)ncnc54)[C@H](O)[C@@H]3O)[C@@H](O)[C@H]2O)C=CC1", "note": "[NADH]", "values": [
      {"measurement": "NADH oxidation, absorbance at 340 nm", "value": "enzymatic activity of purified rNFOR was determined by calculating the oxidation of NADH to NAD^+"}
    ]}
  ]
}
